Results on one compound are retold here after paper PMC6934184, “Selective DNA-PKcs inhibition extends the therapeutic index of localized radiotherapy and chemotherapy” (The Journal of Clinical Investigation, 2019).

The target in the experiment is T1, MAP2K1 (MEK1) S218D S222D (Homo sapiens, UniProt Q02750, S218D/S222D).
T1 construct: purchased Thermo Fisher Scientific (Life Technologies) SelectScreen
Kind of experiment: SelectScreen LanthaScreen. Type of experiment: binding. The note with it: read-out: % displacement. The gist of the method: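 NU5455 was profiled across the SelectScreen Broad panel of kinase activity and binding assays. Z'LYTE reactions such as CSF1R ran at apparent Km ATP, while the Adapta CAMK1 assay used ATP listed as 10. Values are given as percent.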
A general note: In TR-FRET formats the signal depends on donor and acceptor labels being close together.

T1 sequence (Q02750 whole entry S218D/S222D): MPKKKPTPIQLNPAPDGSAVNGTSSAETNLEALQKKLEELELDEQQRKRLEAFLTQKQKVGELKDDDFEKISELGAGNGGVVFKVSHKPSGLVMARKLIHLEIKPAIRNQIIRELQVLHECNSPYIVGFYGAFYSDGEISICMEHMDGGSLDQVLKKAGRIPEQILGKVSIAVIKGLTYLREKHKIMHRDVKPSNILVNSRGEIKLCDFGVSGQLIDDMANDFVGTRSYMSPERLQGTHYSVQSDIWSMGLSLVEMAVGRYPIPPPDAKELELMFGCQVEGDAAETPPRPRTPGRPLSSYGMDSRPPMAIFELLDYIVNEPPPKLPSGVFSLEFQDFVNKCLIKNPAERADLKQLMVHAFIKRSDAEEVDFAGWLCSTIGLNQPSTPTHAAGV

Consider `CN(C(=O)CN1CCOCC1)c1ccc2sc3c(-c4cccc5c(=O)cc(N6CC7CCC(C6)O7)oc45)cccc3c2c1` [NU5455], for which the inhibition at 1 µM was -0.1%.
